US20060247227A1, “Substituted piperidines as histamine h3 receptor ligands” (priority 2003, published 2006)
Structures can show the parent of a compound that is named as a salt.

molecular target: T1, histamine H3 receptor (Homo sapiens, UniProt Q9Y5N1); test: Histamine H3 functional antagonist assay ([35S]GTPγS, SPA, membranes of CHO K1 cells expressing the receptor); type: biochemical; settings: histamine-stimulated GTPγS binding, membranes with human H3
T1 construct: expressed in transfected cells; host or cells: CHO K1 cells carrying pSwitch, transfected with pGeneH3 and induced with mifepristone; clone 3H3; membranes
Text: A membrane preparation containing histamine H3 receptors may be prepared in accordance with the following procedures:
(i) Generation of Histamine H3 Cell Line
DNA encoding the human histamine H3 gene (Huvar, A. et al. (1999) Mol. Pharmacol. 55(6), 1101-1107) was cloned into a holding vector, pCDNA3.1 TOPO (InVitrogen) and its cDNA was isolated from this vector by restriction digestion of plasmid DNA with the enzymes BamH1 and Not-1 and ligated into the inducible expression vector pGene (InVitrogen) digested with the same enzymes. The GeneSwitch™ system (a system where in transgene expression is switched off in the absence of an inducer and switched on in the presence of an inducer) was performed as described in U.S. Pat. Nos. 5,364,791; 5,874,534; and 5,935,934. Ligated DNA was transformed into competent DH5α E. coli host bacterial cells and plated onto Luria Broth (LB) agar containing Zeocin™ (an antibiotic which allows the selection of cells expressing the sh ble gene which is present on pGene and pSwitch) at 50 μg ml^−1. Colonies containing the re-ligated plasmid were identified by restriction analysis. DNA for transfection into mammalian cells was prepared from 250 ml cultures of the host bacterium containing the pGeneH3 plasmid and isolated using a DNA preparation kit (Qiagen Midi-Prep) as per manufacturers guidelines (Qiagen).
CHO K1 cells previously transfected with the pSwitch regulatory plasmid (InVitrogen) were seeded at 2×10e6cells per T75 flask in Complete Medium, containing Hams F12 (GIBCOBRL, Life Technologies) medium supplemented with 10% v/v dialysed foetal bovine serum, L-glutamine, and hygromycin ([…]), 24 hours prior to use. Plasmid DNA was transfected into the cells using Lipofectamine plus according to the manufacturers guidelines (InVitrogen). 48 hours post transfection cells were placed into complete medium supplemented with […] Zeocin™.
10-14 days post selection 10 nM Mifepristone (InVitrogen), was added to the culture medium to induce the expression of the receptor. 18 hours post induction cells were detached from the flask using ethylenediamine tetra-acetic acid (EDTA; 1:5000; InVitrogen), following several washes with phosphate buffered saline pH 7.4and resuspended in Sorting Medium containing Minimum Essential Medium (MEM), without phenol red, and supplemented with Earles salts and 3% Foetal Clone II (Hyclone). Approximately 1×10e7 cells were examined for receptor expression by staining with a rabbit polyclonal antibody, 4a, raised against the N-terminal domain of the histamine H3 receptor, incubated on ice for 60 minutes, followed by two washes in sorting medium. Receptor bound antibody was detected by incubation of the cells for 60 minutes on ice with a goat anti rabbit antibody, conjugated with Alexa 488 fluorescence marker (Molecular Probes). Following two further washes with Sorting Medium, cells were filtered through a 50 μm Filcon™ (BD Biosciences) and then analysed on a FACS Vantage SE Flow Cytometer fitted with an Automatic Cell Deposition Unit. Control cells were non-induced cells treated in a similar manner. Positively stained cells were sorted as single cells into 96-well plates, containing Complete Medium containing 500 μg ml^−1 Zeocin™ and allowed to expand before reanalysis for receptor expression via antibody and ligand binding studies. One clone, 3H3, was selected for membrane preparation.
(ii) Membrane Preparation from Cultured Cells
All steps of the protocol are carried out at 4° C. and with pre-cooled reagents. The cell pellet is resuspended in 10 volumes of buffer A2 containing 50 mM N-2-hydroxyethylpiperazine-N′-2-ethanesulfonic acid (HEPES) (pH 7.40) supplemented with […] leupeptin (acetyl-leucyl-leucyl-arginal; Sigma L2884), 25 μg/ml bacitracin (Sigma B0125), 1 mM ethylenediamine tetra-acetic acid (EDTA), 1 mM phenylmethylsulfonyl fluoride (PMSF) and 2×10e-6M pepstain A (Sigma). […]

T1 sequence (Q9Y5N1 whole entry): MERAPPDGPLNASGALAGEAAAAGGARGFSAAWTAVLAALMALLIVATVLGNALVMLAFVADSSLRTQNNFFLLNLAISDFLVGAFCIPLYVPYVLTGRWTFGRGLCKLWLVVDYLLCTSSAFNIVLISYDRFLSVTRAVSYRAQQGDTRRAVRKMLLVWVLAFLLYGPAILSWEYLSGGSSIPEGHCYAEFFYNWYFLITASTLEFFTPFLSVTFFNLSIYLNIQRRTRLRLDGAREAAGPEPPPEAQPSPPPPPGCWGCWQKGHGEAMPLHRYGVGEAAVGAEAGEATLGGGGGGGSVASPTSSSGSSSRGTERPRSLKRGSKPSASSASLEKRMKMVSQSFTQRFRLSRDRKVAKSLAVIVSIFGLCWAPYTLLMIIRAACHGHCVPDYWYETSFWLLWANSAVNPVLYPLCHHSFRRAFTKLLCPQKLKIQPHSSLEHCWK

SMILES | Ki
CC(C)N1CCC(OC2CCN(c3ccc(C(F)(F)F)cn3)CC2)CC1 [Example E87, 2-(4-{[1-(1-Methylethyl)-4-piperidinyl]oxy}-1-piperidinyl)-5-(trifluoromethyl)pyridine hydrochloride] | < 10 nM
CC[C@H](C)N1CCC(OC2CCN(c3ccc(C(C)=O)cc3)CC2)CC1 [Example E101] | ≤ 1 nM
CC(C)NC(=O)c1cc(N2CCC(OC3CCN(C4CCC4)CC3)CC2)ccn1 [Example E67] | < 10 nM
Cc1nc(-c2ccc(N3CCC(OC4CCN(C5CCC5)CC4)CC3)cc2)no1 [Example E25] | ≤ 1 nM
Cc1noc(-c2ccc(N3CCC(OC4CCN(C(C)C)CC4)CC3)cc2)n1 [Example E17, 1-(1-Methylethyl)-4-({1-[4-(3-methyl-1,2,4-oxadiazol-5-yl)phenyl]-4-piperidinyl}oxy)piperidine hydrochloride] | < 0.316 nM
CN(C)C(=O)c1ccc(N2CCC(OC3CCN(C4CCC4)CC3)CC2)nc1 [Example E55] | ≤ 1 nM
O=C(NCCCCl)c1ccc(N2CCC(OC3CCN(C4CCC4)CC3)CC2)cn1 [Example E107, N-(3-Chloropropyl)-5-{4-[(1-cyclobutyl-4-piperidinyl)oxy]-1-piperidinyl}-2-pyridinecarboxamide hydrochloride] | ≤ 1 nM
c1ncc(-c2ccc(N3CCC(OC4CCN(C5CCC5)CC4)CC3)cc2)o1 [Example E29] | ≤ 1 nM
CCNC(=O)c1ccc(N2CCC(OC3CCN(C(C)C)CC3)CC2)cn1 [Example E39] | ≤ 1 nM
CC(C)N1CCC(OC2CCN(c3ccc(C(=O)N4CCCC4)nc3)CC2)CC1 [Example E33] | ≤ 1 nM
CNC(=O)c1cnc(N2CCC(OC3CCN(C4CCC4)CC3)CC2)cn1 [Example E70, 5-(4-[(1-Cyclobutyl-4-piperidinyl)oxy]-1-piperidinyl}-N-methyl-2-pyrazinecarboxamide butanedioate] | ≤ 1 nM
O=C(c1ccc(N2CCC(OC3CCN(C4CCC4)CC3)CC2)cn1)N1CCCCC1 [Example E35] | ≤ 1 nM
O=C(NC1CCC1)c1ccc(N2CCC(OC3CCN(C4CCC4)CC3)CC2)cn1 [Example E104, N-Cyclobutyl-5-{4-[(1-cyclobutyl-4-piperidinyl)oxy]-1-piperidinyl}-2-pyridinecarboxamide] | ≤ 1 nM
Cc1cc(-c2ccc(N3CCC(OC4CCN(C(C)C)CC4)CC3)cc2)on1 [Example E23] | ≤ 1 nM

tested on: not given; test: not given; settings: not given

SMILES | melting point
CNC(=O)c1ccc(N2CCC(OC3CCN(C4CCC4)CC3)CC2)cn1 [Example E38A, 5-{4-[(1-Cyclobutyl-4-piperidinyl)oxy]-1-piperidinyl}-N-methyl-2-pyridinecarboxamide] | 109.7 °C
